Source: patent US20220401406A1, “TOPICAL FORMULATIONS AND INSTILLATES, KITS, AND METHODS FOR TREATING INT[…], AND USES THEREOF” (VinSan Therapeutics Inc., priority 2019, published 2022)

Assays:
integumentary wound = assay: General statements on tests of topical formulations on integumentary wounds; conditions: in vivo
Recalcitrant wounds = assay: Further trials of topical formulations F21 to F30, nine patients; format: in vivo, human; conditions: use of the component in the formulations compared to no use of it
Protocol: Topical formulations were prepared in aliquots using the following proportions—in F21, F22, and F27 to F30, the specified amounts of CBD and THCa were supplied in 2 ml of total oil volume; in F23 and F24, the specified amount of THCa was supplied in 2 ml of total oil volume and the specified amount of CBD was supplied in 4 ml of total oil volume; in F25 and F26, the specified amount of CBD was supplied in 3 ml of total oil volume:
Recalcitrant wounds of nine were treated with Formulations F21 to F30. Formulations F21, F23, F25, F27 and F29, compounded in a mixture of hyaluronic acid and aloe vera gel, were applied to wound beds. Formulations F22, F24, F26, F28 and F30, compounded in liposomal base, were applied to periwound areas. […]

| SMILES | wound healing effects compared with decarboxylated tetrahydrocannabinol (THC) (integumentary wound) | more rapid closure of wounds (cm^2/day), average (Recalcitrant wounds) |
| --- | --- | --- |
| CCCCCc1cc2c(c(O)c1C(=O)O)[C@@H]1C=C(C)CC[C@H]1C(C)(C)O2 [THCa, tetrahydrocannabinolic acid] | better wound healing effects | 5.3 times |
| C=CC(C)(O)CCC=C(C)C (stereo not drawn) [linalool] | – | 3.8 times |
